Tests used:
[1] = molecular target: T1, recombinant guanylate cyclase reporter cell line (Rattus norvegicus, UniProt P19686+P20595); experiment: Effect on a recombinant guanylate cyclase reporter cell line; format: cell-based; details: MEC = minimum effective concentration; in some cases means of individual determinations
T1 construct: expressed in transfected cells
T1 sequence (P19686 1-690): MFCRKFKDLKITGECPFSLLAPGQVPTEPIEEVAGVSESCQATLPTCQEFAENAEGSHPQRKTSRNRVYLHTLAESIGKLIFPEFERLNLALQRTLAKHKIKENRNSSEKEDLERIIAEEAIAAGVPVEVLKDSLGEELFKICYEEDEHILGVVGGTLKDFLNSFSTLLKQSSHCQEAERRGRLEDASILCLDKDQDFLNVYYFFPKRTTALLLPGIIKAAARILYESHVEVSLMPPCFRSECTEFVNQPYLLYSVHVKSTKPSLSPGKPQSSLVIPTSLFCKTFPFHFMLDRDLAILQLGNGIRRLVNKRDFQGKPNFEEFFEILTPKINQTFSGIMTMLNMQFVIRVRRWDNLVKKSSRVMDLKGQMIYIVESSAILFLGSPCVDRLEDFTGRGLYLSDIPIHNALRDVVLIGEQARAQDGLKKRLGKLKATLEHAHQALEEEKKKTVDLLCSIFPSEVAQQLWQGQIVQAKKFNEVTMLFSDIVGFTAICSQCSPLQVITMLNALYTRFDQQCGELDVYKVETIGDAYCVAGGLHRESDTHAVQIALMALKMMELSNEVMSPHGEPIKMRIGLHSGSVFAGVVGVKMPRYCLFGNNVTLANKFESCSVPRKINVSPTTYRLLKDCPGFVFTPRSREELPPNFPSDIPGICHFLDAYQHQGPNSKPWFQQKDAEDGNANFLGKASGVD
T1 sequence (P20595 1-619): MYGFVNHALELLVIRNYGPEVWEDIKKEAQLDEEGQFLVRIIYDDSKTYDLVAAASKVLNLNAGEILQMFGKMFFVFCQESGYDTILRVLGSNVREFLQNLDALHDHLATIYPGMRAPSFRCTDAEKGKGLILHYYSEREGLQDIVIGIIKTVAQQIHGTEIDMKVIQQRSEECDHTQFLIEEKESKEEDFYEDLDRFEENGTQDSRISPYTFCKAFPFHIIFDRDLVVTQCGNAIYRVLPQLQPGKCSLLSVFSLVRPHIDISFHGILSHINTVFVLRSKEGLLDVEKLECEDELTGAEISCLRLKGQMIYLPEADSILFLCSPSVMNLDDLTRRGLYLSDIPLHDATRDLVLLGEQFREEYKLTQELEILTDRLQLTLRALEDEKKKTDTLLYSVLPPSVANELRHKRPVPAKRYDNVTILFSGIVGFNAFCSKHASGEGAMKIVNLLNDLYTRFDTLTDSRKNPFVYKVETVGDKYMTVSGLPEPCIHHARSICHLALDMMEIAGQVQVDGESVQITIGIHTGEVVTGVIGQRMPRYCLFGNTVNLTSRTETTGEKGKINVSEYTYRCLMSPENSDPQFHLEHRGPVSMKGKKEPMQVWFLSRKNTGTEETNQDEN
Procedure, shortened: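 Values are reported as MEC, sometimes averaged over individual determinations. The test system is a reporter cell line expressing recombinant rat guanylate cyclase.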

[2] = molecular target: T2, human phosphodiesterase 5 (PDE 5) (Homo sapiens, UniProt O76074); experiment: Inhibition of human phosphodiesterase 5 (PDE 5); format: biochemical; details: PDE 5 preparation from human platelets; in some cases means of individual determinations
T2 construct: PDE 5 preparations are obtained from human platelets by disruption; from tissue; host or cells: human platelets
Procedure, shortened: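 IC50 comes from percent inhibition over a 1:3 series with final levels of 4 to 0.0018 μM. Reaction: tritiated cGMP tracer (0.025 μCi) with platelet-derived, Mono Q-purified enzyme, 1 h at room temperature in Tris pH 7.5, under 70% turnover. Read-out by scintillation proximity beads.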

Compound	MEC [1]	IC50 [2]
Cc1nc2c(cc1F)c(-c1nc3c(c(C(N)=O)n1)C(C)(C)C(=O)N3)nn2Cc1cccc(F)c1F [Example 4, 2-[1-(2,3-Difluorobenzyl)-5-fluoro-6-methyl-1H-pyrazolo[3,4-b]pyridin-3-yl]-5,5-dimethyl-6-oxo-6,7-dihydro-5H-pyrrolo[2,3-d]pyrimidine-4-carboxamide]	0.2 µM	110 nM
Cc1nc2c(cc1F)c(-c1nc3c(c(C(N)=O)n1)C(C)(C)C(=O)N3)nn2Cc1ccccc1F [Example 5, 2-[5-Fluoro-1-(2-fluorobenzyl)-6-methyl-1H-pyrazolo[3,4-b]pyridin-3-yl]-5,5-dimethyl-6-oxo-6,7-dihydro-5H-pyrrolo[2,3-d]pyrimidine-4-carboxamide]	0.3 µM	86 nM
Cc1nc2c(cc1F)c(-c1nc3c(c(C(N)=O)n1)C(C)(C)C(=O)N3)nn2Cc1c(F)ccc(F)c1F [Example 6, 2-[5-Fluoro-6-methyl-1-(2,3,6-trifluorobenzyl)-1H-pyrazolo[3,4-b]pyridin-3-yl]-5,5-dimethyl-6-oxo-6,7-dihydro-5H-pyrrolo[2,3-d]pyrimidine-4-carboxamide]	0.2 µM	140 nM
Cc1nc2c(cc1F)c(-c1nc3c(c(C(N)=O)n1)C(C)(C)C(=O)N3)nn2Cc1ncccc1F [Example 7, 2-{5-Fluoro-1-[(3-fluoropyridin-2-yl)methyl]-6-methyl-1H-pyrazolo[3,4-b]pyridin-3-yl}-5,5-dimethyl-6-oxo-6,7-dihydro-5H-pyrrolo[2,3-d]pyrimidine-4-carboxamide]	3 µM	130 nM
CC1(C)C(=O)Nc2nc(-c3nn(Cc4ncccc4F)c4ncc(F)cc34)nc(C(N)=O)c21 [Example 8, 2-{5-fluoro-1-[(3-fluoropyridin-2-yl)methyl]-1H-pyrazolo[3,4-b]pyridin-3-yl}-5,5-dimethyl-6-oxo-6,7-dihydro-5H-pyrrolo[2,3-d]pyrimidine-4-carboxamide]	2 µM	81 nM
CC1(C)C(=O)Nc2nc(-c3nn(Cc4ccccc4F)c4ncccc34)nc(C(=O)NC3CC3)c21 [Example 24, N-Cyclopropyl-2-[1-(2-fluorobenzyl)-1H-pyrazolo[3,4-b]pyridin-3-yl]-5,5-dimethyl-6-oxo-6,7-dihydro-5H-pyrrolo[2,3-d]pyrimidine-4-carboxamide]	0.1 µM	3.5 nM
CC(C)(O)CNC(=O)c1nc(-c2nn(Cc3ccccc3F)c3ncccc23)nc2c1C(C)(C)C(=O)N2 [Example 25]	0.3 µM	2 nM
CC1(C)C(=O)Nc2nc(-c3nn(Cc4ccccc4F)c4ncccc34)nc(C(=O)N3CCC(O)C3)c21 (stereo not drawn) [Example 26]	0.3 µM	930 nM
CC1(C)C(=O)Nc2nc(-c3nn(Cc4ccccc4F)c4ncc(F)cc34)nc(C(=O)NCC3(O)CC3)c21 [Example 27, 2-[5-Fluoro-1-(2-fluorobenzyl)-1H-pyrazolo[3,4-b]pyridin-3-yl]-N-[(1-hydroxycyclopropyl)methyl]-5,5-dimethyl-6-oxo-6,7-dihydro-5H-pyrrolo[2,3-d]pyrimidine-4-carboxamide]	0.1 µM	51 nM
CC1(C)C(=O)Nc2nc(-c3nn(Cc4ccccc4F)c4ncc(F)cc34)nc(C(=O)NC3CC3)c21 [Example 28]	0.03 µM	5.2 nM
CC(C)(O)CNC(=O)c1nc(-c2nn(Cc3ccccc3F)c3ncc(F)cc23)nc2c1C(C)(C)C(=O)N2 [Example 29]	0.3 µM	12 nM
CC(C)(N)CNC(=O)c1nc(-c2nn(Cc3ccccc3F)c3ncc(F)cc23)nc2c1C(C)(C)C(=O)N2 [Example 30]	1 µM	310 nM
CC1(C)C(=O)Nc2nc(-c3nn(Cc4ccccc4F)c4ncc(F)cc34)nc(C(=O)NC3(C#N)CC3)c21 [Example 31]	0.1 µM	10 nM
CC1(C)C(=O)Nc2nc(-c3nn(Cc4ncccc4F)c4ncc(F)cc34)nc(C(=O)NC3CC3)c21 [Example 32]	1 µM	12 nM
CN(CC1CC1)C(=O)c1nc(-c2nn(Cc3ncccc3F)c3ncc(F)cc23)nc2c1C(C)(C)C(=O)N2 [Example 33]	0.1 µM	110 nM
CC1(C)C(=O)Nc2nc(-c3nn(Cc4ncccc4F)c4ncc(F)cc34)nc(C(=O)NC(C3CC3)C3CC3)c21 [Example 34]	1 µM	77 nM
CN(CCO)C(=O)c1nc(-c2nn(Cc3ncccc3F)c3ncc(F)cc23)nc2c1C(C)(C)C(=O)N2 [Example 35]	10 µM	1300 nM

Compound	MEC [1]	IC50 [2]
COCCNC(=O)c1nc(-c2nn(Cc3ncccc3F)c3ncc(F)cc23)nc2c1C(C)(C)C(=O)N2 [Example 36]	3 µM	73 nM
Cc1nc2c(cc1F)c(-c1nc3c(c(C(=O)NC4CC4)n1)C(C)(C)C(=O)N3)nn2Cc1cccc(F)c1F [Example 37]	0.1 µM	4 nM
Cc1nc2c(cc1F)c(-c1nc3c(c(C(=O)N(C)CC4CC4)n1)C(C)(C)C(=O)N3)nn2Cc1cccc(F)c1F [Example 38]	0.01 µM	770 nM
Cc1nc2c(cc1F)c(-c1nc3c(c(C(=O)NC(C4CC4)C4CC4)n1)C(C)(C)C(=O)N3)nn2Cc1cccc(F)c1F [Example 39]	0.3 µM	34 nM
Cc1nc2c(cc1F)c(-c1nc3c(c(C(=O)N(C)CCO)n1)C(C)(C)C(=O)N3)nn2Cc1cccc(F)c1F [Example 40]	0.03 µM	240 nM
COCCNC(=O)c1nc(-c2nn(Cc3cccc(F)c3F)c3nc(C)c(F)cc23)nc2c1C(C)(C)C(=O)N2 [Example 41]	0.065 µM	88 nM
CC1(C)C(=O)Nc2nc(-c3nn(Cc4ccccc4F)c4cc(Cl)ccc34)nc(C(=O)NCC3CC3)c21 [Example 42, 2-[6-Chloro-1-(2-fluorobenzyl)-1H-indazol-3-yl]-N-(cyclopropylmethyl)-5,5-dimethyl-6-oxo-6,7-dihydro-5H-pyrrolo[2,3-d]pyrimidine-4-carboxamide]	0.3 µM	74 nM
CC1(C)C(=O)Nc2nc(-c3nn(Cc4ccccc4F)c4cc(Cl)ccc34)nc(C(=O)NC3CC3)c21 [Example 43]	0.3 µM	14 nM
CC1(C)C(=O)Nc2nc(-c3nn(Cc4ccccc4F)c4cc(Cl)ccc34)nc(C(=O)NCC(F)(F)F)c21 [Example 44]	0.3 µM	110 nM
CC1(C)C(=O)Nc2nc(-c3nn(Cc4ccccc4F)c4cc(Cl)ccc34)nc(C(=O)NCCC(F)(F)F)c21 [Example 45]	0.3 µM	130 nM
CN(C(=O)c1nc(-c2nn(Cc3ccccc3F)c3cc(Cl)ccc23)nc2c1C(C)(C)C(=O)N2)C1CC1 [Example 46]	0.03 µM	1000 nM
CN(CC1CC1)C(=O)c1nc(-c2nn(Cc3ccccc3F)c3cc(Cl)ccc23)nc2c1C(C)(C)C(=O)N2 [Example 47]	0.03 µM	730 nM
CC1(C)C(=O)Nc2nc(-c3nn(Cc4ccccc4F)c4cc(Cl)ccc34)nc(C(=O)N3CCCC3)c21 [Example 48]	0.1 µM	1100 nM
CC1(C)C(=O)Nc2nc(-c3nn(Cc4ccccc4F)c4ncc(F)cc34)nc(C(=O)NCC3CC3)c21 [Example 49]	0.1 µM	33 nM
CC1(C)C(=O)Nc2nc(-c3nn(Cc4ccccc4F)c4ncc(F)cc34)nc(C(=O)NCC(F)(F)F)c21 [Example 50]	0.1 µM	19 nM
CC1(C)C(=O)Nc2nc(-c3nn(Cc4ccccc4F)c4ncc(F)cc34)nc(C(=O)NCCC(F)(F)F)c21 [Example 51]	0.1 µM	87 nM
